Assay results: US20210108199A1, “Treatment for aggressive cancers by targeting C9ORF72” (The Trustees of Columbia University in the City of New York, priority 2017, published 2021)

Key:
Format in all cases: cell-based
U87 cells [1] = test: Transmission electron microscopy of vacuoles; settings: 72 hours of KD
Protocol: Since endocytic vacuoles (including macropinosomes) are known to have a single membrane U87 cells treated with control and siC9 siRNA (SEQ ID NO:631) were imaged using transmission electron microscopy (TEM). […] FIG. 13 is a set of representative TEM images of U87 cells treated with Control (siCtrl) and C9 (siC9) siRNA after 72 hours of KD. One asterisk indicates representative vacuoles; two asterisks represent membrane folding. The white boxes in FIG. 13A and FIG. 13B show locations for the digital zoomed-in images below, in FIG. 13C and FIG. 13D. The scale bar represents 5 μm.

p53 null U87 cells = test: Vacuoles in p53 null U87 clones; settings: p53 null U87 clones KO #4 and KO #9
Protocol: To generate p53 knockout clones, U87 cells (7×10^5) were transfected with 2 μg p53 CRISPR/Cas9 KO plasmid (Santa Cruz Biotech™, sc-416469) using Lipofectamine 2000 (ThermoFisher™). Two days later, cells were treated with Nutlin-3 (10 μM) for 12 days to inhibit proliferation of cells with wild type p53, thereby enriching for p53 knockout cells. Single-cell clones were selected via limiting dilution, and p53 knockout clones were confirmed by western blotting using p53 antibody (FL-393).
C9 then was knocked down with two independent siRNAs in the two U87 p53 null clones. […] See FIG. 33A, which provides phase contrast images (40×) of two clones (KO #4 and KO #9) of p53 null U87 cells generated by CRISPR, treated with control (siCtrl) and C9 (siC9; SEQ ID NO:631) siRNA, and FIG. 33B, a WB showing C9 levels after C9 KD in KO #4 cells.
FIG. 34 is a graph presenting quantitation of data for about 90 cells, indicating the number of vacuoles per cell. Statistical significance was assessed by unpaired t-test: NS P>0.05, *P≤0.05, **P≤0.01, ***P≤0.001 ****P≤0.0001. FIG. 35 is a WB showing PARP1, phospho-ERK and γ-H2AX levels upon C9 KD (siC9; SEQ ID NO:631) in U87 KO #4 cell line.

U87 cells [2] = test: Mitochondrial imaging (MitoTracker) and MiNA quantitation
Protocol: Mitchondria imaging in U87 cell was performed with MitoTracker™ Red CMXRos (ThermoFisher™, M7512) according to the manufacturer's protocol. Cells then were imaged as described herein.
Quantitation was performed using a publicly available macro MiNA for ImageJ™ as described.
The vacuoles were studied to investigate whether they are swollen mitochondria, because several reports observed vacuolated mitochondria in ALS patients and mice models that resemble the phenotype seen here. A fluorescent mitochondrial dye was used to visualize mitochondria upon C9 KD. […] See FIG. 5A and FIG. 5B, which show an IF image of U87 cells treated as in Example 1 and stained with MitoTracker (red) and nuclei stained with DAPI (blue).
To obtain the data seen in FIG. 6, the stained mitochondria from FIG. 5 were IF stained and analyzed using MiNA software for ImageJ™.

U87 cells [3] = test: FACS cell cycle analysis; settings: day three
Protocol: U87 cells were treated with control and C9 siRNA for 3 days. On day 3, cells were fixed in 70% ethanol at −20° C., re-suspended in phosphate-citrate buffer (192 mM Na2HPO4, 4 mM citric acid), and incubated for 30 minutes in PBS containing 10 μg/mL propidium iodide (PI) and 10 μg/mL RNase A. Data were collected on a FACSCalibur™ flow cytometer (Becton Dickinson™). Data analysis was performed using FlowJo™.
To validate the cell viability assays, C9 was knocked down in U87 cells and the cells were analyzed by FACS. […] The bar plots represent the cell cycle measurement (subG1-purple, G2-green, S-red, G1-blue) of three independent biological replicates upon control (siCtrl) or C9 (siC9; SEQ ID NO:631) siRNA. Error bars represent S.E.M.

[4] = system: HCC1937 cells (with BRCA1 mutation); test: CellTiter-Glo viability assay in HCC1937 cells
Protocol: […] (HCC1937, with BRCA1 mutation) cells were harvested using trypsin (0.5 ml per well) and the media was saved from each well. The saved media were resuspended with the trypsinised cells and 2-3 aliquots (0.05 ml each) of this suspension was transferred to 96-well plates. HCC cells were subjected to S1 and S2 as described above. A CellTiter-Glo™ Luminescent Viability assay was used to measure the viability of these aliquots by adding 0.15 mL of the CTG-media mixture to each well. The rest of the culture was used to extract protein. Viability of cells was measured using the 1:1 dilution of the CellTiter-Glo™ Luminescent reagent (Promega™) with media, which was read on a Victor 5™ plate reader after 10 minutes of shaking at room temperature. The intensity of luminescence was normalized to that of the DMSO control.
Without being bound to any particular theory, it is believed that this is because PARP1 is inhibited which is known to cause death in BRCA1 deficient breast cancer cell lines.

U87 cells [5] = test: TUNEL assay for DNA breaks; settings: vs control
Protocol: Cells were treated with control and C9 siRNA for three days. On day three, cells were collected for TUNEL assay using the FlowTACS kit (TREVIGEN™, 4817-60-K) according to manufacturer's instructions to detect DNA fragmentation. For a positive control, DNA damage was induced using doxorubicin. Data were collected on a FACSCalibur™ flow cytometer (Becton Dickinson™) and data analysis performed on FlowJo™.
ROS can cause oxidative DNA damage. Since elevated ROS levels were observed under C9 KD conditions, it may cause increase in DNA damage. To test this hypothesis, a TUNEL assay was used to measure DNA breaks. […] In addition to C9KD, U87 cells were treated with a known chemotherapeutic DNA damage-inducing drug to serve as a positive control for DNA damage (see FIG. 23). FIG. 23 presents data for the TUNEL assay of U87 cells treated as described for FIG. 21 and for positive DNA-damage control with 0.5 μM doxorubicin (DOX). FIG. 23A presents data for the percentage of cells with DNA fragmentation (shown by DNA damage) comparing control (siCtrl) C9 KD (siC9; SEQ ID NO:631) and DOX-treated cells as measured by FACS analysis. […] FIG. 24 is a set of graphs showing data for cells treated as described for FIG. 23, with the exception of using a different C9 siRNA, indicated as siC9 #2 (SEQ ID NO:633).

Substance: siC9: siRNA targeting C9 mRNA: UUAAUGAAACAAUAAUCACUC (SEQ ID NO:631; sense) and GUGAUUAUUGUUUCAUUAAUC (SEQ ID NO:632; antisense) (listed as RNA, chemistry not given here)
- vacuole appearance in TEM (U87 cells [1]): electron-transparent and had a single membrane
- vacuolization (p53 null U87 cells): no significant increase in vacuolization
- total amount of individual and networked mitochondria staining (U87 cells [2]; MiNA): increased
- mitochondrial dye staining of vacuoles (U87 cells [2]; MitoTracker): did not stain red
- mitochondrial network organization (U87 cells [2]; vs control): significant mitochondrial network disorganization
- decrease in G1 (U87 cells [3]): 4.7 fold
- increase in S phase (U87 cells [3]): 3.3 fold
- increase in SubG1 phase (U87 cells [3]): 3.1 fold
- cell viability [4]: decrease in their viability
- DNA breaks (TUNEL) (U87 cells [5]): increase in DNA breaks
